Results on eight compounds are retold here after patent US12054497B2, “Substituted heterocyclic fused cyclic compound, preparation method therefor and pharmaceutical use thereof” (GENFLEET THERAPEUTICS (SHANGHAI) INC., priority 2019, dated 2024).

Like-named read-outs stand apart in the source and are kept apart here.

A short description of data set [1]: Pharmacokinetic evaluation on mice, intragastric (PO) administration (Test Example 6). As to conditions: mouse, plasma, PO 15 mg/kg, male CD-1 mice; for bioavailability: read-out: F (bioavailability); for Cmax: read-out: Cmax; for Tmax: read-out: Tmax. It counts as in vivo. On the procedure:
(§1) Experimental objective: male CD-1 mice were chosen as tested animals, and the LC-MS-MS method was employed to measure the concentrations of a tested compound in blood plasma of a mouse intravenously and intragastrically administrated with the tested compound at different times. The pharmacokinetic behaviors of tested compounds in mice were studied, and the pharmacokinetic characteristics thereof were evaluated.
(§2) Experimental scheme: experimental animals: 18 healthy adult male CD-1 mice (6 to 8 weeks old, and body weight about 30 g) were divided into 6 groups according to the principle of similar body weights: 3 mice in each of IV groups (3 groups), and 3 mice in each of PO groups (3 groups). The animals were purchased from Shanghai Jihui Laboratory Animal Care Co., Ltd.
(§3) Formulation: IV group: taking 10 mL of sample solution for example, 4 mg of sample was weighed, orderly added with 0.5 mL of DMSO and […], then added with […] of HP-p-CD, finally added with water to a constant volume of 10 mL, and stirred and subjected to ultrasonic irradiation, thereby obtaining a 0.4 mg/mL clear solution. PO group: an appropriate amount of sample was weighed, orderly added with appropriate amounts of Labrasol and water in a volume ratio of 10:40, and stirred and subjected to ultrasonic irradiation, thereby obtaining a 1.5 mg/mL uniform solution.
(§4) Administration: after being deprived of food for one night, the IV groups were intravenously administrated with the formulated solutions, respectively, with an injection volume of 5 mL/kg and a dosage of 2 mg/kg. The PO groups were intragastrically administrated with the formulated solutions, respectively, with an injection volume of […] and a dosage of 15 mg/kg.
(§5) Experimental operations: after the intravenous injection groups and the intragastric administration groups of the male CD-1 mice were administrated with the tested compounds, 110 ul of blood was sampled at the following time points: 0.0833, 0.25, 0.5, 1, 2, 4, 6, 8, and 24 hours. The sampled blood was placed into an anticoagulant tube which was added with K2EDTA in advance and preserved in dry ice. The tube was centrifuged for 15 minutes to separate blood plasma, and the separated blood plasma was preserved at −70° C. The animals were allowed to be fed after 4 hours of administration. The LC-MS-MS method was employed to measure the concentration of the tested compounds in the blood plasma after the intravenous and intragastric administration to the mice. The linear range of the method was 1-3000 ng/ml. The blood plasma samples were analyzed after protein precipitation with ACN.

Data set [2] is described as follows: Pharmacokinetic evaluation on mice, intravenous administration (Test Example 6). Type of data set: in vivo. As to conditions: mouse, plasma, male CD-1 mice, IV 2 mg/kg; for clearance: read-out: Cl (clearance rate) (converted); for half-life: read-out: T1/2 (half-life) (converted); for Vd: read-out: Vd (volume of distribution). On the procedure: as §1, §2, §3, §4, §5

For data set [3], the system named is phosphorylated ERK in MIA PaCa2 cells with Kras G12C mutation. Nature of the data set: p-ERK HTRF assay for cells (Test Example 2). Type of data set: cell-based, human. A digest of the protocol: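 MIA PaCa2 cells (2.5E4/well, seeded overnight) treated 2 h with compound in a 3.16-fold series at 0.1% DMSO. Cells lysed 30 min; p-ERK read by HTRF after 4 h antibody incubation. Inhibition relative to DMSO and blank; IC50 by four-parameter fit.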

Data set [4] deals with subcutaneous xenograft tumor model of MIA PaCa-2. Nature of the data set: In vivo pharmacodynamic experiment, tumor growth inhibition (Test Example 5). Further details: species or system BALB/c nude mice. Particulars: p.o., QD; for TGI: day 14. How it is done: Experimental objective: to evaluate the in vivo pharmaceutical effects of tested compounds on the subcutaneous xenograft tumor model of MIA PaCa-2.
Experimental operation: 6 to 8 weeks old female BALB/c nude mice each having the body weight of 18-20 g were chosen. MIA PaCa-2 cells were cultured in DMEM containing 10% FBS, 2.5% HS and 1% penicillin-streptomycin at 37° C. in an incubator with 5% CO2. Cells were collected. The MIA PaCa-2 cells were subcutaneously inoculated to the animals at their backs on the right, 2.0×10^6 cells (0.1 mL) for each animal. When tumor grew to 190-311 mm^3, mice with tumor having a suitable size were chosen and treated in groups, with administration dosages shown in Table 5 below. The animals were weighed on an electronic balance each day. The tumor volume was investigated by using a vernier caliper twice a week. The tumor volume was calculated by the following equation: V=0.5 a×b^2, a and b representing the long diameter and the short diameter of the tumor, respectively. The tumor volume was used to calculate a tumor growth inhibition rate (TGI), and the TGI shown in the form of a percentage was used to indicate the antineoplastic activity of a compound. The TGI was calculated by the following equation: TGI (%)=[1−avTi−0/avCi−0)]×100, with avTi−0 representing the average tumor volume of the group administrated with the compound on a specific day minus the average tumor volume of this group on the day of grouping, and avCi−0 representing the average tumor volume of the solvent control group on a specific day minus the average tumor volume of the solvent control group on the day of grouping. The tumor volume was shown in the form of an average value±standard error of mean (SEM).

[5] abbreviates: Homo sapiens, MIA PaCa-2, 2 h, MIA PaCa2 cells, 2 hours with compound, read-out: p-ERK IC50.
Where [6] appears, read: MIA PaCa2 cells, 2 hours with compound, read-out: p-ERK IC50.

On to `C=CC(=O)N1CCN2c3c(c(=O)n(-c4c(C)ccnc4C(C)C)c4nc(-c5c(O)cccc5F)c(F)cc34)N(C)C(=O)[C@H]2C1` (single isomer, unassigned) [Compound Z9-2], for which, in data set [1], the bioavailability turned out to be 103%, the Cmax came out at 13200 ng/mL and the Tmax is 1 h. In data set [2], the clearance was 2.33 mL/min/kg, the half-life is 1.74 h and the Vd came out at 0.326 L/kg. The IC50 in data set [3] (setting [5]) is 0.221 µM.

Turning to `C=CC(=O)N1C[C@@H]2C(=O)N(C)c3c(c4cc(F)c(-c5c(O)cccc5F)nc4n(-c4c(C)ccnc4C(C)C)c3=O)N2C[C@H]1C` (single isomer, unassigned) [Compound Z10-2], in data set [1], the bioavailability came to 59.2%, the Cmax was 3960 ng/mL and the Tmax came to 1 h. Further, in data set [2], the clearance was 13.5 mL/min/kg, the half-life is 0.941 h and the Vd stood at 1.06 L/kg. The IC50 in data set [3] (setting [6]) worked out at 0.034 µM.

In the case of `C=CC(=O)N1CCN2c3c(c(=O)n(-c4c(C)ccnc4C(C)C)c4nc(-c5c(O)cccc5F)c(Cl)cc34)N(C)C(=O)[C@H]2C1` (single isomer, unassigned) [Compound Z25-2], in data set [1], the bioavailability worked out at 93.5%, the Cmax was 6640 ng/mL and the Tmax is 1.93 h. Further, in data set [2], the clearance was 8.32 mL/min/kg, the half-life was 1 h and the Vd was found to be 0.661 L/kg. Moreover, in data set [4] (1 mg/kg), the “Tumor Volume on Day 14 after Administration” value (“Tumor Volume” below) turned out to be 180.14 mm^3 and the TGI is recorded as 116.2%. Also, in data set [4] (3 mg/kg), the “Tumor Volume” value was determined as 62.35 mm^3 and the TGI was found to be 143.7%. Besides, in data set [4] (10 mg/kg), the “Tumor Volume” value is 18.94 mm^3 and the TGI is reported as 154.4%. For the same compound, the IC50 in data set [3] (Homo sapiens, MIA PaCa-2, 2 h, read-out: p-ERK IC50, MIA PaCa2 cells, 2 hours with compound) turned out to be 0.029 µM.

`[2H]C([2H])([2H])N1C(=O)[C@H]2CN(C(=O)C=C)CCN2c2c1c(=O)n(-c1c(C)ccnc1C(C)C)c1nc(-c3c(O)cccc3F)c(Cl)cc21` (single isomer, unassigned) [Compound Z26-2]: the “Tumor Volume” value in data set [4] (1 mg/kg) is reported as 157.06 mm^3; in data set [4] (3 mg/kg), 67.66 mm^3; in data set [4] (10 mg/kg), 30.49 mm^3. In addition, the TGI is 121.1% in data set [4] (1 mg/kg), 143.8% in data set [4] (3 mg/kg) and 151.1% in data set [4] (10 mg/kg). Moreover, in data set [3] (read-out: p-ERK IC50, MIA PaCa2 cells, 2 hours with compound), the IC50 amounted to 0.062 µM.

Regarding `C=CC(=O)N1C[C@@H]2C(=O)N(C)c3c(c4cc(Cl)c(-c5c(O)cccc5F)nc4n(-c4c(C)ccnc4C(C)C)c3=O)N2C[C@H]1C` (single isomer, unassigned) [Compound Z27-2], in data set [1], the bioavailability stood at 96.8%, the Cmax amounted to 3660 ng/mL and the Tmax amounted to 1.74 h. Further, in data set [2], the clearance was 9.83 mL/min/kg, the half-life was 1.08 h and the Vd is 0.777 L/kg. For the same compound, in data set [4] (1 mg/kg), the “Tumor Volume” value is recorded as 140.10 mm^3 and the TGI is 126.3%. In data set [4] (3 mg/kg), the “Tumor Volume” value is 54.81 mm^3 and the TGI stood at 145.1%. For the same compound, in data set [4] (10 mg/kg), the “Tumor Volume” value amounted to 15.16 mm^3 and the TGI is reported as 155.8%. For the same compound, the IC50 in data set [3] (setting [6]) was 0.011 µM.

With `C=CC(=O)N1CCN2c3c(c(=O)n(-c4c(C(C)C)ncnc4C(C)C)c4c(F)c(-c5c(O)cccc5F)c(Cl)cc34)NC(=O)[C@H]2C1` (single isomer, unassigned) [Compound Z37-1], the “Tumor Volume” value in data set [4] (1 mg/kg) was 286.12 mm^3; in data set [4] (3 mg/kg), 238.82 mm^3; in data set [4] (10 mg/kg) it was 210.59 mm^3. For the same compound, the TGI in data set [4] (1 mg/kg) stood at 89.4%; in data set [4] (3 mg/kg), 102.8%; in data set [4] (10 mg/kg) it was 108.4%. In addition, the IC50 in data set [3] (setting [5]) was 0.011 µM.

In the case of `C=CC(=O)N1CCN2c3c(c(=O)n(-c4c(C)ccnc4C(C)C)c4nc(-c5c(O)cccc5F)c(F)cc34)OC[C@H]2C1` [Compound Z1, (4aR)-3-acryloyl-11-fluoro-10-(2-fluoro-6-hydroxyphenyl)-8-(2-isopropyl-4-methylpyridin-3-yl)-1,2,3,4,4a,5-hexahydropyrazino[1′,2′:4,5][1,4]oxazino[2,3-c][1,8]naphthyridin-7(8H)-one], in data set [1], the Cmax is 2600 ng/mL and the Tmax was 0.25 h. In addition, in data set [3] (setting [5]), the IC50 was 0.432 µM.

Regarding `C=CC(=O)N1CCN2c3c(c(=O)n(-c4c(C(C)C)ncnc4C(C)C)c4nc(-c5c(O)cccc5F)c(Cl)cc34)N(C)C(=O)[C@H]2C1` [Compound Z48], in data set [1], the bioavailability was 38.1%, the peak concentration (Cmax) worked out at 1250 ng/mL and the Tmax came out at 0.5 h. In data set [2], the clearance is 25.5 mL/min/kg, the half-life was 1.02 h and the Vd was 1.66 L/kg. Further, in data set [4] (1 mg/kg), the “Tumor Volume” value worked out at 459.33 mm^3 and the TGI stood at 51.2%. Moreover, in data set [4] (3 mg/kg), the “Tumor Volume” value was determined as 148.62 mm^3 and the TGI is reported as 124.7%. In data set [4] (10 mg/kg), the “Tumor Volume” value came out at 90.39 mm^3 and the TGI was determined as 138.5%. Further, the IC50 in data set [3] (setting [5]) was found to be 0.052 µM.

One may read the Cmax as the maximum level reached in the sampled fluid or tissue. For orientation: Tmax means the time from dosing to the highest level. What is called clearance is the volume of plasma or blood freed of the substance per unit of time. Usually Vd stands for a proportionality between amount in the body and measured concentration, not a real space. The IC50 is the concentration at which inhibition is half-maximal.
